Test results from publication PMC8196580, “Identification of Kaurane-Type Diterpenes as Inhibitors of Leishmania Pteridine Reductase I” (Molecules, 2021).
Like-named read-outs stand apart in the source and are kept apart here.

Experiments:
L. major [1] = assay: ChEMBL dataset of pIC50 values against L. major used for the RF model (Table S1); format: cell-based, Leishmania major; note: call rule not given here
L. major [2] = test system: L. major; set-up: method as in ChEMBL; conditions: ref ChEMBL, cited from earlier work
[3] = Active/Inactive class assigned to the ChEMBL pIC50 value for Random forest model construction, ref ChEMBL
[4] = ChemBL structures with pIC50 values used for Random forest model construction, L. major
[5] = Active/Inactive class assigned to ChemBL structures for Random forest model construction (Table S1)
[6] = ChemBL structures with pIC50 values used for Random forest model construction (Table S1)

Row | SMILES | Outcome (L. major [1]; [3]) | pIC50 Value (L. major [2]; [4]) | Outcome (L. major [1]; [5]) | pIC50 Value (L. major [2]; [6])
1 | NP(=O)(OCc1ccc([N+](=O)[O-])c(F)c1)N(CCCl)CCCl (stereo not shown) [CHEMBL1256990] | Active | 5.04 | – | –
2 | CCn1nc(C)cc1-c1nnc2sc(-c3ccc(C)cc3)nn12 [CHEMBL1256826] | Inactive | 4.05 | – | –
3 | c1c[nH]c(-c2nc3ccccc3[nH]2)c1 [CHEMBL2298016] | – | – | Active | 5.46
4 | C[C@H]1COC2=C1C(=O)C(=O)c1c2ccc2c1C(=O)CCC2(C)C [CHEMBL519694] | Inactive | 4.59 | – | –
5 | CC(C)=CCC/C(C)=C/CC/C(C)=C/COc1ccc2ccc(=O)oc2c1 [CHEMBL156127] | Inactive | 4.88 | – | –
6 | CCCN1CSC(=S)N(CC(=O)O)C1 [CHEMBL4282164] | Inactive | 4.16 | – | –
7 | O=[N+]([O-])c1cccc(-c2nc3ccc([N+](=O)[O-])cc3[nH]2)c1 [CHEMBL1563210] | – | – | Active | 5.56
8 | O=CN/N=C/c1ccccc1O [CHEMBL1172261] | Inactive | 3.84 | – | –
9 | NP(=O)(OCc1ccc([N+](=O)[O-])cc1Cl)N(CCCl)CCCl (stereo not shown) [CHEMBL1257017] | – | – | Active | 5.51
10 | COc1ccc(-c2nc3ccccn3c2-c2cccc([N+](=O)[O-])c2)cc1 [CHEMBL2151882] | Inactive | 4.85 | – | –
11 | O=C(/C=C/c1ccc(-n2ccnc2)cc1)c1cc(Cl)ccc1Cl [CHEMBL570739] | – | – | Active | 5.54
12 | COC(=O)C1=C(C)NC(C)=C(C(=O)OC)C1c1ccccc1[N+](=O)[O-] [CHEMBL193] | Inactive | 3.74 | – | –
13 | COc1cc2c(c(OC)c1)C(C)N(c1cccc3ccccc13)C(C)C2 (stereo not shown) [CHEMBL520770] | Inactive | 4.18 | – | –
14 | CCOC(=O)c1ccc(-c2nc3ccccn3c2-c2ccccc2)cc1 [CHEMBL2151879] | Inactive | 4.40 | – | –
15 | CCCCN1CN(CC(=O)O)CSC1=S [CHEMBL4283328] | Inactive | 4.61 | – | –
16 | Cn1cc(C2N(c3ccc(Cl)cc3)C(=O)C2(c2ccccc2)c2ccccc2)c2ccccc21 (stereo not shown) [CHEMBL2071563] | – | – | Active | 5.78
17 | Cn1c([N+](=O)[O-])cnc1-c1nnc(N2CCN(C(=O)c3ccccc3)CC2)s1 [CHEMBL482463] | Inactive | 4.98 | – | –
18 | COc1ccc(-c2c(-c3ccccc3)nc3ccccn23)cc1 [CHEMBL2151858] | Active | 5.14 | – | –
19 | COc1ccc(/C=C/C(=O)c2ccccc2)c(OC)c1 [CHEMBL144626] | – | – | Active | 5.40
20 | Nc1ccc2ncnc(Nc3ccc(OCc4cccc(F)c4)c(Cl)c3)c2c1 [CHEMBL3637893] | Inactive | 4.98 | – | –
21 | NP(=O)(OCc1ccc([N+](=O)[O-])cc1C(F)(F)F)N(CCCl)CCCl (stereo not shown) [CHEMBL1257016] | Active | 5.23 | – | –
22 | COc1ccc(C(=O)/C=C/c2ccc(-n3ccnc3)cc2)cc1 [CHEMBL570461] | – | – | Active | 5.49
23 | CC(=O)Oc1ccc(OC(C)=O)c2c1CC1(C)CCC(=O)C(C)=C1C2=O (stereo not shown) [CHEMBL255869] | Inactive | 3.65 | – | –
24 | CCCCN1CSC(=S)N(CC(=O)O)C1 [CHEMBL4278695] | Inactive | 4.44 | – | –

Row | SMILES | Outcome (L. major [1]; [3]) | pIC50 Value (L. major [2]; [4]) | Outcome (L. major [1]; [5]) | pIC50 Value (L. major [2]; [6])
25 | CSc1cccc(Nc2ncnc3ccc([N+](=O)[O-])cc23)c1 [CHEMBL3760067] | Inactive | 4.70 | – | –
26 | c1ccc(Nc2c3ccccc3nc3ccccc23)cc1 [CHEMBL49436] | – | – | Active | 5.57
27 | C[C@@H]([C@H]1CC=C2[C@@H]3CCC4=C[C@@H](N(C)C)CC[C@]4(C)[C@H]3CC[C@@]21C)N(C)C [CHEMBL496488] | Active | 5.17 | – | –
28 | Cc1csc(C(=O)/C=C/c2cc3ccc(C)cc3nc2Cl)c1 [CHEMBL1940852] | – | – | Active | 5.60
29 | Cc1ccc(-c2nc3ccccc3[nH]2)cc1 [CHEMBL2283280] | – | – | Active | 5.42
30 | COc1ccc([C@@H]2COc3c(ccc4c3C=CC(C)(C)O4)C2)c(OC)c1O [CHEMBL498725] | Inactive | 4.63 | – | –
31 | c1ccc(-c2nc3c(NCCN4CCOCC4)nccn3c2-c2ccncc2)cc1 [CHEMBL3634365] | Inactive | 4.63 | – | –
32 | N#Cc1ccc(-c2c(-c3ccccc3)nc3ccccn23)cc1 [CHEMBL2151864] | Inactive | 4.00 | – | –
33 | COc1ccccc1-c1nnc(-c2ccc(C(=O)N/N=C/c3ccccc3[N+](=O)[O-])cc2)o1 [CHEMBL4104790] | Inactive | 4.19 | – | –
34 | c1ccc2[nH]c(-c3c[nH]c4ccccc34)nc2c1 [CHEMBL2298015] | – | – | Active | 5.43
35 | CCOc1ccc(/N=C/c2cn(C)c3ccccc23)cc1 [CHEMBL2071554] | – | – | Active | 5.50
36 | CNc1ccc(Nc2c3ccccc3nc3ccccc23)cc1OC [CHEMBL92157] | – | – | Active | 5.44
37 | COc1cc(OC)c2c(C)[n+](-c3c(C)cccc3C)c(C)cc2c1.F[B-](F)(F)F [CHEMBL521247] | – | – | Active | 5.46
38 | CC(=O)C1=C(CNc2ccc(C3=NNC(c4ccc(O)cc4)C3)cc2)N(C)C(=O)NC1c1ccccc1 (stereo not shown) [CHEMBL3786468] | – | – | Active | 6.02
39 | Clc1ccc(-c2nc3ccccc3[nH]2)cc1 [CHEMBL473163] | – | – | Active | 5.50
40 | COc1cc(OC)c2c(C)[n+](-c3cccc4ccccc34)c(C)cc2c1.F[B-](F)(F)F [CHEMBL479641] | – | – | Active | 5.79
41 | NC[C@@H]1O[C@H](O[C@H]2[C@@H](O)[C@H](O[C@@H]3[C@@H](O)[C@H](N)C[C@H](N)[C@H]3O[C@H]3O[C@H](CO)[C@@H](O)[C@H](O)[C@H]3N)O[C@@H]2CO)[C@H](N)[C@@H](O)[C@@H]1O [CHEMBL370143] | Inactive | 4.00 | – | –
42 | Cc1nc(-c2ccccn2)nc(N2CCC(Cc3ccccc3)C2)c1Cl (stereo not shown) [CHEMBL474899] | Active | 5.05 | – | –
43 | COc1cc(OC)c2c(C)[n+](-c3ccc(C(C)C)cc3C(C)C)c(C)cc2c1.F[B-](F)(F)F [CHEMBL519606] | – | – | Active | 6.27
44 | COc1c(C)cc2cccc(OC)c2c1O [CHEMBL2071227] | Inactive | 4.35 | – | –
45 | COc1ccccc1-c1nnc(-c2ccc(C(=O)N/N=C/c3ccc(Cl)cc3)cc2)o1 [CHEMBL4060153] | Inactive | 4.47 | – | –
46 | COc1cc(OC)c2c(C)[n+](-c3cccc4cc5ccccc5cc34)c(C)cc2c1.O=C([O-])C(F)(F)F [CHEMBL516450] | – | – | Active | 5.73
47 | O=[N+]([O-])c1ccc(-c2nnc(NCc3cn(Cc4ccc(F)cc4)nn3)s2)o1 [CHEMBL1951524] | Inactive | 4.67 | – | –
